Patent US20080146502A1, “Methods for modulating the sensation of satiety perception and agents useful for same” (Autogen Research Pty Ltd., priority 2004, published 2008)
pIC50: −log10 of the molar value. ≈ marks a conversion by molar mass, not a printed value.

Legend:
[1] = system: receptor-mediated Ca^2+ entry in endothelial cells; details: cited from earlier work
food intake in rats = test: Food intake in fasted rats after single intragastric gavage; type: in vivo; details: for Food Intake: 5 mg/kg in saline, mean ± sem
Procedure: Adult, male rats were fasted for 16 hours then administered with a single intragastric gavage of 1-[beta-[3-(4-Methoxyphenyl)propoxy]-4-methoxyphenethyl]-1H-imidazole.HCl at a dose of 5 mg/kg in saline in a volume of 0.5 ml, or saline alone (0.5 ml). There were 8 animals in each group. Food intake was measured at various timepoints over the following 24 hours.

[2] = cited from earlier work
[3] = system: receptor-mediated Ca^2+ entry in neutrophils; details: cited from earlier work
[4] = system: receptor-mediated Ca^2+ entry in stimulated platelets; details: cited from earlier work
TRPV channels = details: cited from earlier work

COc1ccc(CCCOC(Cn2ccnc2)c2ccc(OC)cc2)cc1 (stereo not drawn) [1-[β-[3-(4-methoxyphenyl)propoxy]-4-methoxyphenethyl]-1H-imidazole]
inhibition of receptor-mediated Ca^2+ entry [1]: selective inhibitor | food intake, trend vs saline (food intake in rats; 5 mg/kg gavage, after 3 h, 5 h, 6 h, 8 h, 9 h, 10 h and 24 h, p<0.10): strong trends for reduced food intake | Food Intake (food intake in rats; 0.5 h after single intragastric gavage, rats fasted 16 h): 2.4 ± 0.3 g | Food Intake (food intake in rats; 1 h after single intragastric gavage, rats fasted 16 h): 2.8 ± 0.3 g | Food Intake (food intake in rats; 2 h after single intragastric gavage, rats fasted 16 h): 2.9 ± 0.3 g | Food Intake (food intake in rats; 3 h after single intragastric gavage, rats fasted 16 h): 3.8 ± 0.4 g | Food Intake (food intake in rats; 4 h after single intragastric gavage, rats fasted 16 h): 4.9 ± 0.5 g | Food Intake (food intake in rats; 5 h after single intragastric gavage, rats fasted 16 h): 5.1 ± 0.5 g | Food Intake (food intake in rats; 6 h after single intragastric gavage, rats fasted 16 h): 6.3 ± 0.5 g | Food Intake (food intake in rats; 7 h after single intragastric gavage, rats fasted 16 h): 7.4 ± 0.6 g | Food Intake (food intake in rats; 8 h after single intragastric gavage, rats fasted 16 h): 8.2 ± 0.6 g | Food Intake (food intake in rats; 9 h after single intragastric gavage, rats fasted 16 h): 9.3 ± 0.6 g | Food Intake (food intake in rats; 10 h after single intragastric gavage, rats fasted 16 h): 10.3 ± 0.6 g | Food Intake (food intake in rats; 11 h after single intragastric gavage, rats fasted 16 h): 11.5 ± 0.6 g | Food Intake (food intake in rats; 12 h after single intragastric gavage, rats fasted 16 h): 12.4 ± 0.6 g | Food Intake (food intake in rats; 24 h after single intragastric gavage, rats fasted 16 h): 18.4 ± 0.8 g | food intake over the period of the study (food intake in rats; rats fasted 16 h, 5 mg/kg single intragastric gavage in saline vs saline alone, 24 h): reduced food intake over the period of the study | Solubility in water [2]: 30 mg/mL (≈ 81.9 mM) | inhibition of receptor-mediated Ca^2+ entry [3]: selective inhibitor | pIC50 [4]: 4.92 to 5.10

N.N.N.N.N.N.N.N.N.N.N.N.N.N.[Cl-].[Cl-].[Cl-].[Cl-].[Cl-].[Cl-].[O-2].[O-2].[Ru+3].[Ru+3].[Ru+4] [Ruthenium Red]
block of TRPV channels (TRPV channels): blocks all TRPV channels
